Experimental findings from patent US9351974B2, “Substituted pteridinones for the treatment of cancer” (OSI Pharmaceuticals, LLC, priority 2011, dated 2016) are described below.

A value given as a limit tells only on which side of the number the result lay.

The target in this test is T1, His-tagged full-length RSK2 (RPS6KA3) (Homo sapiens, UniProt P51812).
T1 construct: His-tagged full-length RSK2 (RPS6KA3, Invitrogen PV3323); His; purchased Invitrogen PV3323
T1 sequence (P51812 whole entry): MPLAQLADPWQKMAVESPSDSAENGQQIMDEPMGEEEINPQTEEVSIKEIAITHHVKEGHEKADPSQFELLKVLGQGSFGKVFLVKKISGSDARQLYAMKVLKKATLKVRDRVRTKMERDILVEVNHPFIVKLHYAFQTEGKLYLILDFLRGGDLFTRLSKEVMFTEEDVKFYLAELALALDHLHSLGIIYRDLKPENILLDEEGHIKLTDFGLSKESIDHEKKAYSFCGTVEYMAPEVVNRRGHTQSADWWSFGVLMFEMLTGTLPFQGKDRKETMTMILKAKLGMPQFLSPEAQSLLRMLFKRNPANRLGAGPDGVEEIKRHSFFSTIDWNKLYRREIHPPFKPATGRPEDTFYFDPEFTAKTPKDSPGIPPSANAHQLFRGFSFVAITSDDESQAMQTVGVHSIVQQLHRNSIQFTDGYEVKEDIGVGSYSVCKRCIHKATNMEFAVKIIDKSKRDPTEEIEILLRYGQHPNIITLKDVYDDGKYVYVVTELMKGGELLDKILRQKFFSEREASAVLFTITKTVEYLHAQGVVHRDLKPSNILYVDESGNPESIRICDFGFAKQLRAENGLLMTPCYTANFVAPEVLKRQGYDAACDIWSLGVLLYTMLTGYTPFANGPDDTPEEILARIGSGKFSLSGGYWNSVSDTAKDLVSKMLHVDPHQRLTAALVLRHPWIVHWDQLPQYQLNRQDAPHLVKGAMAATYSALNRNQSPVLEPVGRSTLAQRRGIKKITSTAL
Nature of the test: RSK2 Omnia Assay for compound IC50 determination. It is filed as biochemical. The conditions noted are these: ATP 15 μM, n=2, read-out: Mean RSK2 Biochem IC50. The essentials:
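Initial-rate slopes from continuous kinetic reads were fitted to a four-parameter equation for IC50 (n=2). Ki was then derived by Cheng-Prusoff assuming ATP-competitive inhibition. Reactions contained 15 μM ATP (Km 16.3 μM), 5 μM Omnia ST Peptide 6, and […] in 50 mM HEPES pH 7.5, 10 mM MgCl2, 1 mM DTT, 1% DMSO. Compounds spanned 11 threefold steps, […] final.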
Regarding `CC(C)CCN1c2nc(Nc3ccc4[nH]ncc4c3)ncc2N(c2ccccc2)C(=O)C1(C)C` [Example 70, 2-(1H-indazol-5-ylamino)-7,7-dimethyl-8-(3-methylbutyl)-5-phenyl-7,8-dihydropteridin-6(5H)-one], the IC50 was not above 100 nM.

`C[C@@H]1C(=O)N(c2cccc(C#N)c2)c2cnc(Nc3ccc4[nH]ncc4c3)nc2N1CC1CCC1` [Example 71, 3-[(7R)-8-(cyclobutylmethyl)-2-(1H-indazol-5-ylamino)-7-methyl-6-oxo-7,8-dihydropteridin-5(6H)-yl]benzonitrile]: the IC50 was not above 100 nM.

Turning to `C[C@@H]1C(=O)N(c2ccccc2)c2cnc(Nc3ccc4[nH]ncc4c3)nc2N1CC1CCCCC1` [Example 72, (7R)-8-(cyclohexylmethyl)-2-(1H-indazol-5-ylamino)-7-methyl-5-phenyl-7,8-dihydropteridin-6(5H)-one], the IC50 is not above 100 nM.

For the compound `C[C@@H]1C(=O)N(c2ccccc2)c2cnc(Nc3ccc4[nH]ncc4c3)nc2N1CCN(C)C` [Example 73, (7R)-8-[2-(dimethylamino)ethyl]-2-(1H-indazol-5-ylamino)-7-methyl-5-phenyl-7,8-dihydropteridin-6(5H)-one], the IC50 is more than 1000 nM.

As for `C[C@@H]1C(=O)N(c2ccccc2)c2cnc(Nc3ccc4[nH]ncc4c3)nc2N1CC1CCOCC1` [Example 74, (7R)-2-(1H-indazol-5-ylamino)-7-methyl-5-phenyl-8-(tetrahydro-2H-pyran-4-ylmethyl)-7,8-dihydropteridin-6(5H)-one], the half-inhibitory concentration (IC50) was not above 100 nM.

Regarding `C[C@@H]1C(=O)N(c2ccccc2)c2cnc(Nc3ccc4[nH]ncc4c3)nc2N1CC1CCCC1` [Example 75, (7R)-8-(cyclopentylmethyl)-2-(1H-indazol-5-ylamino)-7-methyl-5-phenyl-7,8-dihydropteridin-6(5H)-one], the IC50 is not above 100 nM.

Turning to `C[C@@H]1C(=O)N(c2ccccc2)c2cnc(Nc3ccc4[nH]ncc4c3)nc2N1Cc1ccccc1` [Example 76, (7R)-8-benzyl-2-(1H-indazol-5-ylamino)-7-methyl-5-phenyl-7,8-dihydropteridin-6(5H)-one], the IC50 was not above 100 nM.

Turning to `C[C@@H]1C(=O)N(c2ccccc2)c2cnc(Nc3ccc4[nH]ncc4c3)nc2N1CCCO` [Example 77, (7R)-8-(3-hydroxypropyl)-2-(1H-indazol-5-ylamino)-7-methyl-5-phenyl-7,8-dihydropteridin-6(5H)-one], the IC50 is 100 to 1000 nM.

For the compound `C[C@@H]1C(=O)N(c2ccccc2)c2cnc(Nc3ccc4[nH]ncc4c3)nc2N1CC1CCNCC1` [Example 78, (7R)-2-(1H-indazol-5-ylamino)-7-methyl-5-phenyl-8-(piperidin-4-ylmethyl)-7,8-dihydropteridin-6(5H)-one], the IC50 is more than 1000 nM.

For the compound `CC(C)CN1c2nc(Nc3ccc4[nH]ncc4c3)ncc2N(c2ccccc2)C(=O)[C@H]1C` [Example 79, (7R)-2-(1H-indazol-5-ylamino)-7-methyl-8-(2-methylpropyl)-5-phenyl-7,8-dihydropteridin-6(5H)-one], the IC50 is not above 100 nM.

Take `C[C@@H]1C(=O)N(c2cccc(C#N)c2)c2cnc(Nc3ccc4[nH]ncc4c3)nc2N1CC1CCOCC1` [Example 80, 3-[(7R)-2-(1H-indazol-5-ylamino)-7-methyl-6-oxo-8-(tetrahydro-2H-pyran-4-ylmethyl)-7,8-dihydropteridin-5(6H)-yl]benzonitrile]: the IC50 is not above 100 nM.

Consider `C[C@@H]1C(=O)N(c2cccc(C#N)c2)c2cnc(Nc3ccc4[nH]ncc4c3)nc2N1CC1CCCC1` [Example 81, 3-[(7R)-8-(cyclopentylmethyl)-2-(1H-indazol-5-ylamino)-7-methyl-6-oxo-7,8-dihydropteridin-5(6H)-yl]benzonitrile], for which the half-maximal inhibitory concentration (IC50) is not above 100 nM.

On to `C[C@@H]1C(=O)N(c2cccc(C#N)c2)c2cnc(Nc3ccc4[nH]ncc4c3)nc2N1CC1CCOC1` (stereo partly drawn) [Example 82, 3-[(7R)-2-(1H-indazol-5-ylamino)-7-methyl-6-oxo-8-(tetrahydrofuran-3-ylmethyl)-7,8-dihydropteridin-5(6H)-yl]benzonitrile], for which the IC50 is not above 100 nM.

With `C[C@@H]1C(=O)N(c2cccc(C#N)c2)c2cnc(Nc3ccc4[nH]ncc4c3)nc2N1CC1CC(F)(F)C1` [Example 83, 3-[(7R)-8-[(3,3-difluorocyclobutyl)methyl]-2-(1H-indazol-5-ylamino)-7-methyl-6-oxo-7,8-dihydropteridin-5(6H)-yl]benzonitrile], the IC50 is not above 100 nM.

For the compound `N#Cc1cccc(N2C(=O)[C@H]3CCCN3c3nc(Nc4cc(F)c5[nH]ncc5c4)ncc32)c1` [Example 84, 3-[(6aR)-2-[(7-fluoro-1H-indazol-5-yl)amino]-6-oxo-6a,7,8,9-tetrahydropyrrolo[2,1-h]pteridin-5(6H)-yl]benzonitrile], the concentration for half-maximal inhibition (IC50) is 100 to 1000 nM.

Take `COc1ccc(N2C(=O)[C@@H](C)N(CCC(C)C)c3nc(Nc4cc(F)c5[nH]ncc5c4)ncc32)cc1OC` [Example 85, (7R)-5-(3,4-dimethoxyphenyl)-2-[(7-fluoro-1H-indazol-5-yl)amino]-7-methyl-8-(3-methylbutyl)-7,8-dihydropteridin-6(5H)-one]: the IC50 is not above 100 nM.

For `CC(C)CCN1c2nc(Nc3cc(F)c4[nH]ncc4c3)ncc2N(c2cccc(C#N)c2)C(=O)[C@H]1C` [Example 86, 3-[(7R)-2-[(7-fluoro-1H-indazol-5-yl)amino]-7-methyl-8-(3-methylbutyl)-6-oxo-7,8-dihydropteridin-5(6H)-yl]benzonitrile], the IC50 is not above 100 nM.

Take `CC(C)CCN1c2nc(Nc3cc(F)c4[nH]ncc4c3)ncc2N(c2cccnc2)C(=O)[C@H]1C` [Example 87, (7R)-2-[(7-fluoro-1H-indazol-5-yl)amino]-7-methyl-8-(3-methylbutyl)-5-(pyridin-3-yl)-7,8-dihydropteridin-6(5H)-one]: the half-inhibitory concentration (IC50) was not above 100 nM.

As to `COc1ccc(N2C(=O)[C@@H](C)N(CCC(C)C)c3nc(Nc4cc(F)c5[nH]c(=O)oc5c4)ncc32)cc1OC` [Example 88, (7R)-5-(3,4-dimethoxyphenyl)-2-[(4-fluoro-2-oxo-2,3-dihydro-1,3-benzoxazol-6-yl)amino]-7-methyl-8-(3-methylbutyl)-7,8-dihydropteridin-6(5H)-one], the half-inhibitory concentration (IC50) is not above 100 nM.

Consider `CC(C)CCN1c2nc(Nc3cc(F)c(O)c(F)c3)ncc2N(c2cccc(C#N)c2)C(=O)[C@H]1C` [Example 89, 3-[(7R)-2-[(3,5-difluoro-4-hydroxyphenyl)amino]-7-methyl-8-(3-methylbutyl)-6-oxo-7,8-dihydropteridin-5(6H)-yl]benzonitrile], for which the IC50 was not above 100 nM.

In the case of `CC(C)CCN1c2nc(Nc3cc(F)c4[nH]c(=O)oc4c3)ncc2N(c2cccc(C#N)c2)C(=O)[C@H]1C` [Example 90, 3-[(7R)-2-[(4-fluoro-2-oxo-2,3-dihydro-1,3-benzoxazol-6-yl)amino]-7-methyl-8-(3-methylbutyl)-6-oxo-7,8-dihydropteridin-5(6H)-yl]benzonitrile], the IC50 was not above 100 nM.

With `COc1ccc(N2C(=O)[C@@H](C)N(CCC(C)C)c3nc(Nc4cc(F)c5[nH]ncc5c4)ncc32)cc1C#N` [Example 91, 5-[(7R)-2-[(7-fluoro-1H-indazol-5-yl)amino]-7-methyl-8-(3-methylbutyl)-6-oxo-7,8-dihydropteridin-5(6H)-yl]-2-methoxybenzonitrile], the IC50 was not above 100 nM.

Usually IC50 stands for the midpoint of a concentration-inhibition curve.
